Data set [1] has as its system HCV replicon RNA (GenBank Accession No. AJ242654). The experiment in a line: HCV Replicon Assay (replicon RNA reduction and/or Fluc reporter signal). The format is cell-based, Hepatitis C virus. The following applies: Hepatitis C virus, 72 h, replicon-containing cells cultured with test compound for up to 3 days. The essentials: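 IC50 values mostly reflect the drop in replicon RNA, though Fluc reporter signal may also be used. Compound incubated with cells carrying the bicistronic replicon for as long as 3 days; interferon served as positive control.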

Some results are limits rather than exact numbers.

Broadly, the IC50 is the point on the concentration scale where inhibition reaches its midpoint. Broadly, the melting point is the temperature of the solid-liquid transition. On to `N#Cc1c(-c2ccc(S(=O)(=O)NC(CF)CF)cc2)n(C2CCC2)c2ncccc12` [Cpd 34, 4-(3-cyano-1-cyclobutyl-1H-pyrrolo[2,3-b]pyridin-2-yl)-N-(1,3-difluoropropan-2-yl)benzenesulfonamide], for which the melting point was 180 to 182 °C. In data set [1], this compound came in with an IC50 of less than 500 nM.

With `C[C@@H](NS(=O)(=O)c1ccc(-c2c(C#N)c3cccnc3n2C2CCC2)nc1)C(F)(F)F` [Cpd 35, 6-(3-cyano-1-cyclobutyl-1H-pyrrolo[2,3-b]pyridin-2-yl)-N-[(2R)-1,1,1-trifluoropropan-2-yl]pyridine-3-sulfonamide], the melting point lay in the range of 184 to 186 °C. The compound also had a half-inhibitory concentration (IC50) in data set [1] of less than 500 nM.

`CC(C)NS(=O)(=O)c1cnc(-c2c(C#N)c3cccnc3n2C2CCC2)nc1` [Cpd 36, 2-(3-cyano-1-cyclobutyl-1H-pyrrolo[2,3-b]pyridin-2-yl)-N-(propan-2-yl)pyrimidine-5-sulfonamide]: the melting point lay in the range of 197 to 199 °C. This compound had an IC50 in data set [1] of less than 500 nM.

Take `CC(C)NS(=O)(=O)c1cnc(-c2c(C#N)c3cc(F)cnc3n2C2CCC2)nc1` [Cpd 37, 2-(3-cyano-1-cyclobutyl-5-fluoro-1H-pyrrolo[2,3-b]pyridin-2-yl)-N-(propan-2-yl)pyrimidine-5-sulfonamide]: the melting point was 207 to 209 °C. The same compound registered an IC50 in data set [1] of less than 500 nM.

The compound `COc1ccc2c(C#N)c(-c3ccc(S(=O)(=O)N[C@@H](C)C(F)(F)F)cn3)n(C3CCC3)c2n1` [Cpd 40, 6-(3-cyano-1-cyclobutyl-6-methoxy-1H-pyrrolo[2,3-b]pyridin-2-yl)-N-[(2S)-1,1,1-trifluoropropan-2-yl]pyridine-3-sulfonamide] registered a melting point of 193 to 194 °C. This compound returned an IC50 in data set [1] of 500 to 2000 nM.

The compound `COc1ccc2c(C#N)c(-c3ccc(S(=O)(=O)NC(CF)CF)cn3)n(C3CCC3)c2n1` [Cpd 41, 6-(3-cyano-1-cyclobutyl-6-methoxy-1H-pyrrolo[2,3-b]pyridin-2-yl)-N-(1,3-difluoropropan-2-yl)pyridine-3-sulfonamide] came in with a melting point of 194 to 195 °C. The same compound had a half-inhibitory concentration (IC50) in data set [1] of less than 500 nM.

With `COc1ccc2c(C#N)c(-c3ncc(S(=O)(=O)NC(CF)CF)cn3)n(C3CCC3)c2n1` [Cpd 42, 2-(3-cyano-1-cyclobutyl-6-methoxy-1H-pyrrolo[2,3-b]pyridin-2-yl)-N-(1,3-difluoropropan-2-yl)pyrimidine-5-sulfonamide], the melting point fell in the range of 229 to 230 °C. Further, the half-maximal inhibitory concentration (IC50) in data set [1] was less than 500 nM.

The compound `COc1ccc2c(C#N)c(-c3ccc(S(=O)(=O)NC(C)(C)C)cc3)n(C3CCC3)c2n1` [Cpd 44, N-tert-butyl-4-(3-cyano-1-cyclobutyl-6-methoxy-1H-pyrrolo[2,3-b]pyridin-2-yl)benzenesulfonamide] had a melting point of 155 to 157 °C. For the same compound, in data set [1], the 50% inhibitory concentration (IC50) was less than 500 nM.

As to `Cc1ncc2c(C#N)c(-c3ccc(S(=O)(=O)N[C@@H](C)C4CC4)cn3)n(C3CCC3)c2n1` [Cpd 45, 6-(5-cyano-7-cyclobutyl-2-methyl-7H-pyrrolo[2,3-d]pyrimidin-6-yl)-N-[(1S)-1-cyclopropylethyl]pyridine-3-sulfonamide], the melting point fell in the range of 155 to 157 °C. Besides, the concentration for half-maximal inhibition (IC50) in data set [1] was less than 500 nM.

Consider `Cc1ncc2c(C#N)c(-c3ccc(S(=O)(=O)N[C@H](C)C(F)(F)F)cn3)n(C3CCC3)c2n1` [Cpd 46, 6-(5-cyano-7-cyclobutyl-2-methyl-7H-pyrrolo[2,3-d]pyrimidin-6-yl)-N-[(2R)-1,1,1-trifluoropropan-2-yl]pyridine-3-sulfonamide], for which the melting point was in the range of 166 to 168 °C. In addition, the IC50 in data set [1] was less than 500 nM.

`C[C@@H](NS(=O)(=O)c1ccc(-c2c(C#N)c3cc(F)cnc3n2C2CCC2)nc1)C(F)(F)F` [Cpd 47, 6-(3-cyano-1-cyclobutyl-5-fluoro-1H-pyrrolo[2,3-b]pyridin-2-yl)-N-[(2R)-1,1,1-trifluoropropan-2-yl]pyridine-3-sulfonamide] returned a melting point of 167 to 169 °C. This compound also returned a half-inhibitory concentration (IC50) in data set [1] of less than 500 nM.

`COc1cnc2c(c1)c(C#N)c(-c1ncc(S(=O)(=O)NC(C)C)cn1)n2C1CCC1` [Cpd 49, 2-(3-cyano-1-cyclobutyl-5-methoxy-1H-pyrrolo[2,3-b]pyridin-2-yl)-N-(propan-2-yl)pyrimidine-5-sulfonamide] showed a melting point of 215 to 217 °C. The same compound showed an IC50 in data set [1] of less than 500 nM.

`C[C@@H](NS(=O)(=O)c1ccc(-c2c(C#N)c3cc(Cl)cnc3n2C2CCC2)nc1)C(F)(F)F` [Cpd 50, 6-(5-chloro-3-cyano-1-cyclobutyl-1H-pyrrolo[2,3-b]pyridin-2-yl)-N-[(2R)-1,1,1-trifluoropropan-2-yl]pyridine-3-sulfonamide] returned a melting point of 202 to 203 °C. In addition, the half-inhibitory concentration (IC50) in data set [1] is less than 500 nM.

On to `C[C@H](NS(=O)(=O)c1ccc(-c2c(C#N)c3cc(Cl)cnc3n2C2CCC2)nc1)C(F)(F)F` [Cpd 51, 6-(5-chloro-3-cyano-1-cyclobutyl-1H-pyrrolo[2,3-b]pyridin-2-yl)-N-[(2S)-1,1,1-trifluoropropan-2-yl]pyridine-3-sulfonamide], for which the melting point is 203 to 204 °C. Moreover, the IC50 in data set [1] was less than 500 nM.

In turn, `CC(C)(C)NS(=O)(=O)c1ccc(-c2c(C#N)c3cc(Cl)cnc3n2C2CCC2)nc1` [Cpd 52, N-tert-butyl-6-(5-chloro-3-cyano-1-cyclobutyl-1H-pyrrolo[2,3-b]pyridin-2-yl)pyridine-3-sulfonamide] showed a melting point of 207 to 208 °C. Also, the concentration for half-maximal inhibition (IC50) in data set [1] is less than 500 nM.

`Cc1ncc2c(C#N)c(-c3ccc(S(=O)(=O)NC(C)(C)C(F)(F)F)cc3)n(C3CCC3)c2n1` [Cpd 53, 4-(5-cyano-7-cyclobutyl-2-methyl-7H-pyrrolo[2,3-d]pyrimidin-6-yl)-N-(1,1,1-trifluoro-2-methylpropan-2-yl)benzenesulfonamide] registered a melting point of 211 to 214 °C. For the same compound, the IC50 in data set [1] was less than 500 nM.

`C[C@H](NS(=O)(=O)c1ccc(-c2c(C#N)c3ccc(OC(F)F)nc3n2C2CCC2)nc1)C(F)(F)F` [Cpd 54, 6-[3-cyano-1-cyclobutyl-6-(difluoromethoxy)-1H-pyrrolo[2,3-b]pyridin-2-yl]-N-[(2S)-1,1,1-trifluoropropan-2-yl]pyridine-3-sulfonamide] came in with a melting point of 176 to 177 °C. Also, in data set [1], the concentration for half-maximal inhibition (IC50) is less than 500 nM.

`N#Cc1c(-c2ncc(S(=O)(=O)NC(CF)CF)cn2)n(C2CCC2)c2nc(OC(F)F)ccc12` [Cpd 55, 2-[3-cyano-1-cyclobutyl-6-(difluoromethoxy)-1H-pyrrolo[2,3-b]pyridin-2-yl]-N-(1,3-difluoropropan-2-yl)pyrimidine-5-sulfonamide] yielded a melting point of 234 to 236 °C. The concentration for half-maximal inhibition (IC50) in data set [1] is less than 500 nM.

For the compound `CC(C)(NS(=O)(=O)c1ccc(-c2c(C#N)c3cc(Cl)cnc3n2C2CCC2)nc1)C(F)(F)F` [Cpd 56, 6-(5-chloro-3-cyano-1-cyclobutyl-1H-pyrrolo[2,3-b]pyridin-2-yl)-N-(1,1,1-trifluoro-2-methylpropan-2-yl)pyridine-3-sulfonamide], the melting point fell in the range of 221 to 222 °C. The compound also had a 50% inhibitory concentration (IC50) in data set [1] of less than 500 nM.

For `N#Cc1c(-c2ccc(S(=O)(=O)NC3(C(F)(F)F)CC3)cn2)n(C2CCC2)c2ncc(Cl)cc12` [Cpd 57, 6-(5-chloro-3-cyano-1-cyclobutyl-1H-pyrrolo[2,3-b]pyridin-2-yl)-N-[1-(trifluoromethyl)cyclopropyl]pyridine-3-sulfonamide], the melting point was in the range of 254 to 255 °C. The IC50 in data set [1] was less than 500 nM.

Regarding `CC(C)NS(=O)(=O)c1cnc(-c2c(C#N)c3cc(Cl)cnc3n2C2CCC2)nc1` [Cpd 58, 2-(5-chloro-3-cyano-1-cyclobutyl-1H-pyrrolo[2,3-b]pyridin-2-yl)-N-(propan-2-yl)pyrimidine-5-sulfonamide], the melting point fell in the range of 224 to 225 °C. The compound also displayed a 50% inhibitory concentration (IC50) in data set [1] of less than 500 nM.

In turn, `C[C@@H](NS(=O)(=O)c1ccc(-c2c(C#N)c3cc(Cl)cnc3n2CC2CC2)nc1)C(F)(F)F` [Cpd 59, 6-[5-chloro-3-cyano-1-(cyclopropylmethyl)-1H-pyrrolo[2,3-b]pyridin-2-yl]-N-[(2R)-1,1,1-trifluoropropan-2-yl]pyridine-3-sulfonamide] gave a melting point of 224 to 226 °C. Besides, the IC50 in data set [1] was in the range of 500 to 2000 nM.

Regarding `C[C@@H](NS(=O)(=O)c1ccc(-c2c(C#N)c3cc(F)cnc3n2CC2CC2)nc1)C(F)(F)F` [Cpd 60, 6-[3-cyano-1-(cyclopropylmethyl)-5-fluoro-1H-pyrrolo[2,3-b]pyridin-2-yl]-N-[(2R)-1,1,1-trifluoropropan-2-yl]pyridine-3-sulfonamide], the melting point was 185 to 187 °C. In addition, the IC50 in data set [1] is less than 500 nM.

In the case of `C[C@H](NS(=O)(=O)c1ccc(-c2c(C#N)c3cc(Cl)cnc3n2C2CCC2)cc1)C(F)(F)F` [Cpd 61, 4-(5-chloro-3-cyano-1-cyclobutyl-1H-pyrrolo[2,3-b]pyridin-2-yl)-N-[(2S)-1,1,1-trifluoropropan-2-yl]benzenesulfonamide], the melting point was 220 to 222 °C. Further, in data set [1], the IC50 was less than 500 nM.

Compound `C[C@H](NS(=O)(=O)c1ccc(-c2c(C#N)c3cnc(OC(F)F)nc3n2C2CCC2)nc1)C(F)(F)F` [Cpd 62, 6-[5-cyano-7-cyclobutyl-2-(difluoromethoxy)-7H-pyrrolo[2,3-d]pyrimidin-6-yl]-N-[(2S)-1,1,1-trifluoropropan-2-yl]pyridine-3-sulfonamide] displayed a melting point of 172 to 174 °C. Also, the IC50 in data set [1] is less than 500 nM.

`C[C@H](NS(=O)(=O)c1ccc(-c2c(C#N)c3cc(Cl)cnc3n2CC2CC2)nc1)C(F)(F)F` [Cpd 63, 6-[5-chloro-3-cyano-1-(cyclopropylmethyl)-1H-pyrrolo[2,3-b]pyridin-2-yl]-N-[(2S)-1,1,1-trifluoropropan-2-yl]pyridine-3-sulfonamide] registered a melting point of 226 to 227 °C. In data set [1], this compound showed an IC50 of less than 500 nM.

The values are drawn from US9593108B2, “Compounds and methods for antiviral treatment” (PTC Therapeutics, Inc., priority 2009, dated 2017).
